Measured values as given in ChEMBL document CHEMBL1124178, “Nucleosides of 1,4-thiazin-3-one and derivatives as tetrahedral intermediate analogues of enzymes in pyrimidine nucleoside metabolism” (J Med Chem, 1988).

Tests used:
Format in all cases: functional
CCRF-CEM = assay: In vitro inhibitory activity against the growth of CCRF-CEM human T lymphoblastic leukemia.; settings: read-out: ID50 (the source's name)
L1210 = assay: In vitro Inhibitory activity against the growth of L1210 murine lymphocytic leukemia; settings: Mus musculus, read-out: ID50 (the source's name)
Homo sapiens = species: Homo sapiens; assay: In vitro Inhibitory activity against the growth of WIL-2 human B lymphoblastic leukemia.

`CC1=CSCC(=O)N1` showed an IC50 (CCRF-CEM) of 35.5 µM, an IC50 (L1210) of 3 µM and an ID50 (Homo sapiens) of 41.7 µM.
